Source: ChEMBL document CHEMBL5291721, “A preclinical secondary pharmacology resource illuminates target-adverse drug reaction associations of marketed drugs” (Nat Commun, 2023)

Columns and labels:
Endothelin-1 receptor = biological target: T1, Endothelin-1 receptor (Homo sapiens, UniProt P25101)
T1 sequence (P25101 whole entry): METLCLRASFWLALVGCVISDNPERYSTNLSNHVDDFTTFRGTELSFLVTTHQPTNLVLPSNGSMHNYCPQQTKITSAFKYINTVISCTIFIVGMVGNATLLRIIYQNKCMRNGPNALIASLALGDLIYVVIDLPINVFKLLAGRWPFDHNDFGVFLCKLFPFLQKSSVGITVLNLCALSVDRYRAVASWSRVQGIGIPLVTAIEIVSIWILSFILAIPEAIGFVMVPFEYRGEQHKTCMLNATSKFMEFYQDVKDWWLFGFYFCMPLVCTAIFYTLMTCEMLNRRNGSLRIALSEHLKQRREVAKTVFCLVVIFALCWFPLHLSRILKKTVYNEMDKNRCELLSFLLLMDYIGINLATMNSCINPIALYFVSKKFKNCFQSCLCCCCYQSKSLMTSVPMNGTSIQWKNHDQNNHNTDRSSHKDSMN

B2 bradykinin receptor = biological target: T2, B2 bradykinin receptor (Homo sapiens, UniProt P30411)
T2 sequence (P30411 whole entry): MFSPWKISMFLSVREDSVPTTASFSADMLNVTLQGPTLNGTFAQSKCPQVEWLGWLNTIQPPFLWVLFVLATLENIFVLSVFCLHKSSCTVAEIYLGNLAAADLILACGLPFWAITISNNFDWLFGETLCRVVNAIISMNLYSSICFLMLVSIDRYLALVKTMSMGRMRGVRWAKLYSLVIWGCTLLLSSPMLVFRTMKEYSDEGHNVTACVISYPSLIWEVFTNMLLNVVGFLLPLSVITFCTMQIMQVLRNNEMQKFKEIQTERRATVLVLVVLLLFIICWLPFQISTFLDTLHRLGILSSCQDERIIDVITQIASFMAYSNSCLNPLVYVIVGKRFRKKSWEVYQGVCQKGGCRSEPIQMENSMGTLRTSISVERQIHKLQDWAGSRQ

Histamine H2 receptor = Histamine H2 receptor (Homo sapiens, UniProt P25021); format: functional, cell-based
[1] = biological target: T3, 5-hydroxytryptamine receptor 2C (Homo sapiens, UniProt P28335)
T3 sequence (P28335 whole entry): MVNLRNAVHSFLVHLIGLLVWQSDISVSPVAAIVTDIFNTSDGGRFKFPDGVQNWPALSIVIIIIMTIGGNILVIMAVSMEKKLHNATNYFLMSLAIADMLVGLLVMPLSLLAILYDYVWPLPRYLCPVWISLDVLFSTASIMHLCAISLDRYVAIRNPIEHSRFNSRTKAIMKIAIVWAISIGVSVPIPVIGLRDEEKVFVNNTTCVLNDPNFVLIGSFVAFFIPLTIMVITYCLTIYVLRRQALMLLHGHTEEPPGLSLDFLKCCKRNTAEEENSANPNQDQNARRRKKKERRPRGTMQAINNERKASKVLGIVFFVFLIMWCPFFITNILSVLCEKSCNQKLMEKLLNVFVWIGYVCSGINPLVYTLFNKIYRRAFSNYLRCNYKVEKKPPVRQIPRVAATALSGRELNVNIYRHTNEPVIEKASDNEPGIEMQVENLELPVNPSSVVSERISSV

[2] = biological target: T4, Alpha-2C adrenergic receptor (Homo sapiens, UniProt P18825); format: functional
T4 sequence (P18825 whole entry): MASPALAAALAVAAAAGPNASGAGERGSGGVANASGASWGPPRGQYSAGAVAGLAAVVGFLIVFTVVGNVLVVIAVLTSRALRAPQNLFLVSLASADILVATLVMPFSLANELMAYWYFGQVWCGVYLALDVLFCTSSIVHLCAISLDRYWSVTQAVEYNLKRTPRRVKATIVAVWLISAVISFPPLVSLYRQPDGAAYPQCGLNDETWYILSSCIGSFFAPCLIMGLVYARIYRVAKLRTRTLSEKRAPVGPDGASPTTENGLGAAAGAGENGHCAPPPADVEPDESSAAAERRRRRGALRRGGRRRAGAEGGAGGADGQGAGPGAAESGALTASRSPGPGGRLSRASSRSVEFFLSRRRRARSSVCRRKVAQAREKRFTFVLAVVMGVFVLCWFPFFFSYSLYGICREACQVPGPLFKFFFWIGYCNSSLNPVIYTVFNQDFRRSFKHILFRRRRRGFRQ

[3] = biological target: cGMP-inhibited 3',5'-cyclic phosphodiesterase 3A (Homo sapiens, UniProt Q14432); format: functional
[4] = biological target: T5, Alpha-1A adrenergic receptor (Homo sapiens, UniProt P35348); format: functional, cell-based
T5 sequence (P35348 whole entry): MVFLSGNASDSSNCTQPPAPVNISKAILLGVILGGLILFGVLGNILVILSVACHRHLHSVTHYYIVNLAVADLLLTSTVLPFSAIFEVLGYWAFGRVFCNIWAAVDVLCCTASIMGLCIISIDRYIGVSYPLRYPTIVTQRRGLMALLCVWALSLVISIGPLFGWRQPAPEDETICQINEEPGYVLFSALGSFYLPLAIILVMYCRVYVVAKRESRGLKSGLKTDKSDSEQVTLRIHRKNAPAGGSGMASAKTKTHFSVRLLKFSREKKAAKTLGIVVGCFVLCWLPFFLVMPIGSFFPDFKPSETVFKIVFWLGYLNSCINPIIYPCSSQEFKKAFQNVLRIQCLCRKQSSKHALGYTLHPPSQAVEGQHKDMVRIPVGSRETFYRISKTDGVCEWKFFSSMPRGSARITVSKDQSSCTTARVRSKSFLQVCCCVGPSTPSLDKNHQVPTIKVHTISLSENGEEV

[5] = biological target: Glutamate receptor ionotropic, NMDA 1 (Rattus norvegicus, UniProt P35439)
[6] = biological target: Muscarinic acetylcholine receptor M3 (Homo sapiens, UniProt P20309)
Vasopressin V1a receptor = Vasopressin V1a receptor (Homo sapiens, UniProt P37288)
Adenosine receptor A3 = biological target: T6, Adenosine receptor A3 (Homo sapiens, UniProt P0DMS8)
T6 sequence (P0DMS8 whole entry): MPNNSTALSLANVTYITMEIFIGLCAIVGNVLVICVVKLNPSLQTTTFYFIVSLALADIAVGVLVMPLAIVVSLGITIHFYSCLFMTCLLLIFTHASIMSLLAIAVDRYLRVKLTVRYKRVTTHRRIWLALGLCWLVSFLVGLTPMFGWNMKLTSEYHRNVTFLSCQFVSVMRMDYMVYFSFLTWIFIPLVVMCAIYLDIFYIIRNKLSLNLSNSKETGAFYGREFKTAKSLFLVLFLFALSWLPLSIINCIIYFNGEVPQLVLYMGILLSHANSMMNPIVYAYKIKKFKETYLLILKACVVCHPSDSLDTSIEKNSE
Also: assay procedure not described here.

Muscarinic acetylcholine receptor M3, sequence (P20309 whole entry): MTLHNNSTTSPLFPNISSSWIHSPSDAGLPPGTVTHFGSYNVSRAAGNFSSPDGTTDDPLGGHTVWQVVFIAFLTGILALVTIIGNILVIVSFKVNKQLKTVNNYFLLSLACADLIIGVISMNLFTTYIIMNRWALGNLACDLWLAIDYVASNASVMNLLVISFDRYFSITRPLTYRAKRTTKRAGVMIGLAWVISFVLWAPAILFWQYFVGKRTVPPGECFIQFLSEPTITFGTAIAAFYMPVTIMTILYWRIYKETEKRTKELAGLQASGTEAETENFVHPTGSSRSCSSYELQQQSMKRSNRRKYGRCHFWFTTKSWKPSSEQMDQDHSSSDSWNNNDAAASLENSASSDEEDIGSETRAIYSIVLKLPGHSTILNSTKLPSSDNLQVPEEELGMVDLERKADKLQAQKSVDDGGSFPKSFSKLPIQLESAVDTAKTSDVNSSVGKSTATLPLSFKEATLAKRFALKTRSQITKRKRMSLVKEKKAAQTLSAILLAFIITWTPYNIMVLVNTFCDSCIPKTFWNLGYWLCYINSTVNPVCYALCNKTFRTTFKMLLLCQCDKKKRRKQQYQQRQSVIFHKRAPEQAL
Vasopressin V1a receptor, sequence (P37288 whole entry): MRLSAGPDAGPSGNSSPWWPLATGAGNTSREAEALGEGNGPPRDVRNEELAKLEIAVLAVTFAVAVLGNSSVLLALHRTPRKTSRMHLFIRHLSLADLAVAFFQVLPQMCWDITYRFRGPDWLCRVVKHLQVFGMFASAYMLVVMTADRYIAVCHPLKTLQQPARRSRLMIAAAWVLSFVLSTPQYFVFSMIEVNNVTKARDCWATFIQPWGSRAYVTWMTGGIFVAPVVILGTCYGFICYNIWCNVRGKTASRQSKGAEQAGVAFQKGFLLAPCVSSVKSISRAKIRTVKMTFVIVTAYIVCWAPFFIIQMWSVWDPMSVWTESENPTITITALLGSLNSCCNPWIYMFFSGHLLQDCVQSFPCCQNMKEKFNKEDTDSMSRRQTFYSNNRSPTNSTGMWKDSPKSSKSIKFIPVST
cGMP-inhibited 3',5'-cyclic phosphodiesterase 3A, sequence (Q14432 whole entry): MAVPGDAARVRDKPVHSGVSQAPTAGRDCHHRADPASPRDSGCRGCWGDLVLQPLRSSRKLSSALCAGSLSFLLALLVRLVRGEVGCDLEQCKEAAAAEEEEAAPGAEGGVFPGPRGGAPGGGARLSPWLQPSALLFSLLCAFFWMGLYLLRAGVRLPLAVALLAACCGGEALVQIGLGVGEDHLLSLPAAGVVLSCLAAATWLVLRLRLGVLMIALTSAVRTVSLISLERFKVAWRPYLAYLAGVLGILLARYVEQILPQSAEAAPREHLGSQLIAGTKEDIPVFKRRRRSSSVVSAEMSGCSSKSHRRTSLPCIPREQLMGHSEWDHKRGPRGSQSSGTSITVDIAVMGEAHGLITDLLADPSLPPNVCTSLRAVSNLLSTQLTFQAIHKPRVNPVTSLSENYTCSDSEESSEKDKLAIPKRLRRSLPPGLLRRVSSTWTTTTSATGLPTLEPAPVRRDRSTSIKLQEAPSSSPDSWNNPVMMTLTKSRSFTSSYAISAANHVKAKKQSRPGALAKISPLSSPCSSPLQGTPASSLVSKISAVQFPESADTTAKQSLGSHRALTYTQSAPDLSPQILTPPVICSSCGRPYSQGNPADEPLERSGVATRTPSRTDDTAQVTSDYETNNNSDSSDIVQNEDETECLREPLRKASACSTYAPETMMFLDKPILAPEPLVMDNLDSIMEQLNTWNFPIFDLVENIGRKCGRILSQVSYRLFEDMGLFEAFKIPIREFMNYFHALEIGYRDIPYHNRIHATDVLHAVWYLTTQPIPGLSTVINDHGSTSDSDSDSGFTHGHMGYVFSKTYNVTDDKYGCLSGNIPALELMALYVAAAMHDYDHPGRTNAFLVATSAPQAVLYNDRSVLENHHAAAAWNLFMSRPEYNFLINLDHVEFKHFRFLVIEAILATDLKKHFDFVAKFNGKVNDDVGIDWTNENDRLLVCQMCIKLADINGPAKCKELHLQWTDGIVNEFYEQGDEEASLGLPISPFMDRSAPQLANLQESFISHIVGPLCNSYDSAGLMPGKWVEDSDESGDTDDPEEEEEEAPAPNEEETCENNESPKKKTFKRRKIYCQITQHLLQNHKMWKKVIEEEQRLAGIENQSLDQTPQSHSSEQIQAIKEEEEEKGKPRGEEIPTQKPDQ
Histamine H2 receptor, sequence (P25021 whole entry): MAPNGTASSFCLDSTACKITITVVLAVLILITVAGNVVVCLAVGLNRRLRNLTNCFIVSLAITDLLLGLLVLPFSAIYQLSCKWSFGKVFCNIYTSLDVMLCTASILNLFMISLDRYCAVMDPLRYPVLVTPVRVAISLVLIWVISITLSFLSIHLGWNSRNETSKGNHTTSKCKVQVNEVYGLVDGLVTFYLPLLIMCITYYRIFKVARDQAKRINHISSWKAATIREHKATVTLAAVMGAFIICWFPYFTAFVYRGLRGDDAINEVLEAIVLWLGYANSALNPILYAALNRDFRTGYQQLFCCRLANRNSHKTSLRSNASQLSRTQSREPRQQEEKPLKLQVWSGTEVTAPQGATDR

Compound | AC50 (Endothelin-1 receptor) [µM] | AC50 (B2 bradykinin receptor) [µM] | AC50 (Histamine H2 receptor) [µM] | AC50 [1] [µM] | AC50 [2] [µM] | AC50 [3] [µM] | AC50 [4] [µM] | AC50 [5] [µM] | AC50 [6] [µM] | AC50 (Vasopressin V1a receptor) [µM] | AC50 (Adenosine receptor A3) [µM]
COc1ccc(C(Cl)=C(c2ccc(OC)cc2)c2ccc(OC)cc2)cc1 [CHLOROTRIANISENE] | > 30 | > 30 | > 30 | > 30 | > 30 | > 30 | 21 | > 30 | > 30 | > 30 | 28
SITOSTEROLS | > 30 | > 30 | > 30 | > 30 | > 30 | > 10 | > 30 | > 30 | > 30 | > 30 | > 30
CC(=O)OCC1=C(C(=O)O)N2C(=O)[C@@H](NC(=O)Cc3cccs3)[C@H]2SC1 [CEPHALOTHIN] | > 30 | > 30 | > 30 | > 30 | > 30 | > 30 | > 30 | > 30 | > 30 | > 30 | > 30
O=C(O)c1nn(Cc2ccc(Cl)cc2Cl)c2ccccc12 [LONIDAMINE] | > 30 | > 30 | > 30 | > 30 | > 30 | > 30 | > 30 | > 30 | > 30 | > 30 | > 30
CC(C)(N)Cc1ccccc1 [PHENTERMINE] | > 30 | > 30 | > 10 | > 30 | > 10 | > 30 | > 30 | > 10 | > 30 | > 30 | > 30
CCN(CC)CCCN(c1ccccc1)C1Cc2ccccc2C1 [APRINDINE] | > 30 | > 30 | > 30 | 8.5 | 7.9 | > 30 | 14 | > 30 | > 30 | > 30 | > 30
CCCCCCOC(=O)NC(=N)c1ccc(NCc2nc3cc(C(=O)N(CCC(=O)OCC)c4ccccn4)ccc3n2C)cc1 [DABIGATRAN ETEXILATE] | > 30 | > 30 | > 30 | > 30 | > 30 | > 30 | > 30 | > 30 | > 30 | > 30 | 11
CN1CCCN=C1/C=C/c1cccc(O)c1 [OXANTEL] | > 30 | > 30 | > 30 | > 30 | > 30 | > 30 | > 30 | > 30 | > 30 | > 30 | 22
CC(=O)Oc1cccc2c1C(=O)c1c(OC(C)=O)cc(C(=O)O)cc1C2=O [DIACEREIN] | > 30 | 28 | > 30 | > 30 | > 30 | > 30 | 13 | > 30 | > 30 | 25 | 17
Cc1ccc(S(=O)(=O)NC(=O)N[C@H]2[C@H]3CC[C@@](C)([C@H]2O)C3(C)C)cc1 [GLIBORNURIDE] | > 30 | > 30 | > 30 | > 30 | > 30 | > 30 | > 30 | > 30 | > 30 | > 30 | > 30
CCN(CC)Cc1nccn1-c1ccc([N+](=O)[O-])cc1C(=O)c1ccccc1Cl [NIZOFENONE] | > 30 | > 30 | > 30 | > 30 | > 30 | > 30 | > 30 | > 30 | > 30 | > 30 | > 30
CC1=C(/C=C/C(C)=C/C=C/C(C)=C/C(=O)Oc2c(C)c(C)c3c(c2C)CCC(C)(CCCC(C)CCCC(C)CCCC(C)C)O3)C(C)(C)CCC1 (stereo not given) [TRETINOIN TOCOFERIL] | > 30 | > 30 | > 30 | > 30 | > 30 | > 30 | > 30 | > 30 | > 30 | > 30 | > 30
CO/N=C(\C(=O)N[C@@H]1C(=O)N2C(C(=O)O)=C(CSc3nc(C)c(CC(=O)O)s3)CS[C@H]12)c1csc(N)n1 [CEFODIZIME] | > 30 | > 30 | > 30 | > 30 | > 30 | > 30 | > 30 | > 30 | > 30 | > 30 | > 30
CN(C)CCOCC(=O)NC12CC3CC(CC(C3)C1)C2 [TROMANTADINE] | > 30 | > 30 | > 30 | > 30 | > 30 | > 30 | > 30 | > 30 | > 30 | > 30 | > 30
COC(=O)c1ccc2c(c1)NC(=O)/C2=C(\Nc1ccc(N(C)C(=O)CN2CCN(C)CC2)cc1)c1ccccc1 [NINTEDANIB] | > 30 | > 10 | > 30 | 25 | > 30 | > 30 | > 30 | > 30 | > 30 | > 30 | > 30
